Consider three compounds from the NIST ThermoML archive (doi:10.1021/acs.jced.7b00584).

± gives the expanded uncertainty stated by the source.

Data set [1] in a line: Boiling temperature at pressure P. The conditions noted are these: 101.3 kPa; Liquid; Ebulliometric method (Recirculating still).
The conditions of data set [2]: Liquid, Ebulliometric method (Recirculating still).

What is called vapor or sublimation pressure is the equilibrium pressure above the liquid or solid. As to `C1CCOC1` [tetrahydrofuran], the “Boiling temperature at pressure P” value in data set [1] came to 65.97 ± 0.11 °C. In addition, the “vapor or sublimation pressure” value in data set [2] (318.85 K) turned out to be 50 ± 1 kPa; in data set [2] (328.15 K) it was 70 ± 1 kPa.

As to `OCCCCO` [1,4-butanediol], the “Boiling temperature at pressure P” value in data set [1] worked out at 228.00 ± 0.11 °C. Besides, the “vapor or sublimation pressure” value turned out to be 50 ± 1 kPa in data set [2] (479.1 K) and 70 ± 1 kPa in data set [2] (489.25 K).

Take `O=C1CCCO1` [γ-butyrolactone]: the “Boiling temperature at pressure P” value in data set [1] came to 204.00 ± 0.11 °C. In addition, the “vapor or sublimation pressure” value amounted to 50 ± 1 kPa in data set [2] (450.25 K) and 70 ± 1 kPa in data set [2] (462.65 K).
